Where only a bound is given, the exact number is not on record here.

Common to all, as to assay type: in vivo
Assay [1] concerns brown rice planthoppers (Nilaparvata lugens). The assay can be described thus: Insecticidal test for brown rice planthoppers. As to conditions: Nilaparvata lugens, 144 h; 500 ppm chemical solution, rice leaf sheaths soaked, third-instar larvae, six days, 25°C; read-out: death rate. As for the experimental part: A 10% by mass emulsion of the presently invented compound prepared according to the above formulation example for an emulsion was diluted with water containing a spreader to prepare a chemical solution having a concentration of 500 ppm. Rice leaf sheaths were soaked in the chemical solution for approximately 10 seconds. After the completion of the soaking operation, the rice leaf sheaths treated with the chemical solution were air-dried, and then put in test tubes. Into each test tube, five third-instar brown rice planthoppers (Nilaparvata lugens) larvae were released, and the test tubes were capped with sponge and accommodated in a thermostatic room at 25°C. Six days after the accommodation, the number of dead brown rice planthoppers individuals in the test tubes were examined, and the death rate was calculated from a calculation formula shown below. The test was carried out in duplicate. [formula]

Assay [2] concerns western flower thrips (Frankliniella occidentalis). Briefly: Insecticidal activity against western flower thrips. As to conditions: Frankliniella occidentalis, 48 h; 500 ppm chemical solution sprinkled (2.5 mg/cm^2), larvae on common bean leaf, after 2 days; read-out: death rate. On the procedure:
Wet filter paper was laid on each styrol cup having an inner diameter of 7 cm, and a common bean leaf cut into a 3 cm square was placed thereon, and inoculated with 20 western flower thrips (Frankliniella occidentalis) larvae. A 10% by mass emulsion of the presently invented compound prepared according to the above formulation example for an emulsion was diluted with water containing a spreader to prepare a chemical solution having a concentration of 500 ppm. For each styrol cup, 2.5 ml of the chemical solution prepared was sprinkled (2.5 mg/cm^2) with a rotary tower sprinkler. […] The test was carried out in duplicate.

Assay [3] concerns diamondback moths (Plutella xylostella). Briefly: Insecticidal test for diamondback moths. As to conditions: Plutella xylostella, 144 h; 500 ppm chemical solution, leaves soaked, third-instar larvae, six days, 25°C; read-out: death rate. On the procedure:
A 10% by mass emulsion of the presently invented compound prepared according to the above formulation example for an emulsion was diluted with water containing a spreader to prepare a chemical solution having a concentration of 500 ppm. Chinese olive leaves were soaked in the chemical solution for approximately 10 seconds. After the completion of the soaking operation, the Chinese olive leaves treated with the chemical solution were air-dried, and then put in dishes. Into each dish, five third-instar diamondback moths (Plutella xylostella) larvae were released, and the dishes were capped and accommodated in a thermostatic room at 25°C. […] The test was carried out in duplicate.

Assay [4] deals with cat fleas (Ctenocephalides felis). Briefly: whole plant or invertebrate. As to conditions: 72 h, read-out: death rate. As for the experimental part: In 1 ml of acetone, 1 mg of the presently invented compound was dissolved to prepare a chemical solution having a concentration of 1000 ppm. The bottom surface and side surface of each glass container having an inner wall surface area of 25 cm^2 were coated with 250 µl of the chemical solution, and acetone was then volatilized to form a thin film of the compound on the inner wall of the glass container.
Into each of the treated glass containers, five cat fleas (Ctenocephalides felis) imagoes (mixed-sex) were released, and the glass containers were capped and accommodated in a thermostatic room at 25°C. Three days after the release, the number of dead flea individuals were examined, and the death rate was calculated from the same calculation formula as in Test Example 1.

On to `O=C(Nc1ccc(F)cc1)C1=C(O)CC(c2nc(-c3cc(F)ccc3F)no2)NC1=O` (stereo not shown) [3-026], for which the mortality at 500 µg/mL in assay [1], in assay [2] and in assay [3] was not below 90% each time. The mortality at 10 µg/cm2 in assay [4] was not below 50%.
For the molecule `O=C(Nc1ccc(F)cc1)C1=C(O)CC(c2nc(-c3ccccn3)no2)NC1=O` (stereo not shown) [3-006], the mortality at 500 µg/mL in assay [1], in assay [2] and in assay [3] was not below 90% each time. Also, the mortality at 10 µg/cm2 in assay [4] is not below 50%.
`O=C(Nc1ccc(C(F)(F)F)nc1)C1=C(O)CC(c2cnc(Cl)c(-c3ccc(F)nc3)c2)NC1=O` (stereo not shown) [2-012]: the mortality at 500 µg/mL in assay [1], in assay [2] and in assay [3] was not below 90% in each case. Further, the mortality at 10 µg/cm2 in assay [4] is not below 50%.
Take `O=C(Nc1ccc(F)cc1)C1=C(O)CC(c2nc(-c3cccc(C(F)(F)F)c3)no2)NC1=O` (stereo not shown) [3-005]: the mortality at 500 µg/mL in assay [1], in assay [2] and in assay [3] was not below 90% in each case. In assay [4], the mortality at 10 µg/cm2 is not below 50%.
Regarding `O=C(Nc1ccc(F)cn1)C1=C(O)CC(c2cnc(Cl)c(-c3cnccc3F)c2)NC1=O` (stereo not shown) [2-136], the mortality at 500 µg/mL in assay [1], in assay [2] and in assay [3] was not below 90% in each case. In addition, in assay [4], the mortality at 10 µg/cm2 is not below 50%.
For `O=C(Nc1cccc(F)n1)C1=C(O)CC(c2nc(-c3ccncc3Cl)no2)NC1=O` (stereo not shown) [3-239], the mortality at 500 µg/mL in assay [1], in assay [2] and in assay [3] was not below 90% each time. Further, the mortality at 10 µg/cm2 in assay [4] is not below 50%.
On to `O=C(Nc1ncccn1)C1=C(O)CC(c2cnc(Cl)c(-c3cnccc3F)c2)NC1=O` (stereo not shown) [2-134], for which the mortality at 500 µg/mL in assay [1], in assay [2] and in assay [3] was not below 90% in each case. For the same molecule, the mortality at 10 µg/cm2 in assay [4] is not below 50%.
`Cc1cccc(-c2cc(C3CC(O)=C(C(=O)Nc4ccccn4)C(=O)N3)cnc2Cl)c1` (stereo not shown) [2-260]: the mortality at 500 µg/mL in assay [1], in assay [2] and in assay [3] was not below 90% throughout. For the same molecule, the mortality at 10 µg/cm2 in assay [4] was not below 50%.
On to `O=C(Nc1ccc(F)cc1)C1=C(O)CC(c2nc(-c3ccccc3)no2)NC1=O` (stereo not shown) [3-001], for which the mortality at 500 µg/mL in assay [1], in assay [2] and in assay [3] was not below 90% throughout. Moreover, the mortality at 10 µg/cm2 in assay [4] is not below 50%.
In the case of `N#Cc1ccc(NC(=O)C2=C(O)CC(c3nc(-c4ccnc(F)c4)no3)NC2=O)cc1` (stereo not shown) [3-071], the mortality at 500 µg/mL in assay [1], in assay [2] and in assay [3] was not below 90% each time. Besides, the mortality at 10 µg/cm2 in assay [4] was not below 50%.
`O=C(Nc1ccc(F)nc1)C1=C(O)CC(c2cnc(Cl)c(-c3ccc(F)nc3)c2)NC1=O` (stereo not shown) [2-008]: the mortality at 500 µg/mL in assay [1], in assay [2] and in assay [3] was not below 90% each time. Also, in assay [4], the mortality at 10 µg/cm2 is not below 50%.
On to `Cc1cccc(-c2cc(C3CC(O)=C(C(=O)Nc4ccc(F)cc4)C(=O)N3)cnc2Cl)c1` (stereo not shown) [2-263], for which the mortality at 500 µg/mL in assay [1], in assay [2] and in assay [3] was not below 90% throughout. For the same molecule, the mortality at 10 µg/cm2 in assay [4] was not below 50%.
`O=C(Nc1ccc(F)cc1)C1=C(O)CC(c2nc(-c3cccnc3)no2)NC1=O` (stereo not shown) [3-007]: the mortality at 500 µg/mL in assay [1], in assay [2] and in assay [3] was not below 90% each time. Besides, the mortality at 10 µg/cm2 in assay [4] was not below 50%.
As to `O=C(Nc1cccc(F)n1)C1=C(O)CC(c2cnc(Cl)c(-c3cnccc3F)c2)NC1=O` (stereo not shown) [2-142], the mortality at 500 µg/mL in assay [1], in assay [2] and in assay [3] was not below 90% each time. For the same molecule, the mortality at 10 µg/cm2 in assay [4] was not below 50%.
As for `O=C(Nc1ccc(F)cc1)C1=C(O)CC(c2nc(-c3cccc(Cl)c3)no2)NC1=O` (stereo not shown) [3-029], the mortality at 500 µg/mL in assay [1], in assay [2] and in assay [3] was not below 90% in each case. Also, the mortality at 10 µg/cm2 in assay [4] was not below 50%.
Regarding `O=C(Nc1ccc(F)cn1)C1=C(O)CC(c2nc(-c3ccnc(F)c3)no2)NC1=O` (stereo not shown) [3-036, N-(5-fluoropyridin-2-yl)-6-(3-(2-fluoropyridin-4-yl)-1,2,4-oxadiazol-5-yl)-4-hydroxy-2-oxo-1,2,5,6-tetrahydropyridine-3-carboxamide], the mortality at 500 µg/mL in assay [1], in assay [2] and in assay [3] was not below 90% each time. In assay [4], the mortality at 10 µg/cm2 is not below 50%.
Regarding `O=C(Nc1cc(F)ccn1)C1=C(O)CC(c2nc(-c3cccc(F)c3)no2)NC1=O` (stereo not shown) [3-057], the mortality at 500 µg/mL in assay [1], in assay [2] and in assay [3] was not below 90% in each case. For the same molecule, the mortality at 10 µg/cm2 in assay [4] is not below 50%.
As for `O=C(Nc1cc(Br)c(F)cn1)C1=C(O)CC(c2cnc(Cl)c(-c3cnccc3F)c2)NC1=O` (stereo not shown) [2-140], the mortality at 500 µg/mL in assay [1], in assay [2] and in assay [3] was not below 90% in each case. Also, in assay [4], the mortality at 10 µg/cm2 was not below 50%.
As for `O=C(Nc1cc(F)ccn1)C1=C(O)CC(c2nc(-c3ccc(F)c(Br)c3)no2)NC1=O` (stereo not shown) [3-146], the mortality at 500 µg/mL in assay [1], in assay [2] and in assay [3] was not below 90% in each case. In addition, the mortality at 10 µg/cm2 in assay [4] was not below 50%.
For `Cc1cccc(-c2noc(C3CC(O)=C(C(=O)Nc4ccc(F)cc4)C(=O)N3)n2)c1` (stereo not shown) [3-030], the mortality at 500 µg/mL in assay [1], in assay [2] and in assay [3] was not below 90% in each case. Also, the mortality at 10 µg/cm2 in assay [4] was not below 50%.
For `O=C(Nc1ccc(F)c(F)c1)C1=C(O)CC(c2nc(-c3ccc(F)cc3F)no2)NC1=O` (stereo not shown) [3-161], the mortality at 500 µg/mL in assay [1], in assay [2] and in assay [3] was not below 90% throughout. The mortality at 10 µg/cm2 in assay [4] is not below 50%.
Turning to `O=C(Nc1cc(F)ccn1)C1=C(O)CC(c2nc(-c3cc(F)ccc3F)no2)NC1=O` (stereo not shown) [3-050], the mortality at 500 µg/mL in assay [1], in assay [2] and in assay [3] was not below 90% throughout. Moreover, in assay [4], the mortality at 10 µg/cm2 is not below 50%.
As to `O=C(Nc1ccc(F)cc1)C1=C(O)CC(c2nc(-c3ccc(F)cc3)no2)NC1=O` (stereo not shown) [3-010], the mortality at 500 µg/mL in assay [1], in assay [2] and in assay [3] was not below 90% in each case. Also, in assay [4], the mortality at 10 µg/cm2 was not below 50%.
Consider `O=C(Nc1cnccn1)C1=C(O)CC(c2cnc(Cl)c(-c3cncc(Cl)c3)c2)NC1=O` (stereo not shown) [2-147], for which the mortality at 500 µg/mL in assay [1], in assay [2] and in assay [3] was not below 90% each time. For the same molecule, the mortality at 10 µg/cm2 in assay [4] was not below 50%.
For the molecule `O=C(Nc1nccs1)C1=C(O)CC(c2cnc(Cl)c(-c3cnccc3F)c2)NC1=O` (stereo not shown) [2-135], the mortality at 500 µg/mL in assay [1], in assay [2] and in assay [3] was not below 90% each time. In addition, the mortality at 10 µg/cm2 in assay [4] was not below 50%.
With `O=C(Nc1ccncn1)C1=C(O)CC(c2cnc(Cl)c(-c3ccc(F)nc3)c2)NC1=O` (stereo not shown) [2-101], the mortality at 500 µg/mL in assay [1], in assay [2] and in assay [3] was not below 90% in each case. The mortality at 10 µg/cm2 in assay [4] is not below 50%.
On to `O=C(Nc1ccccn1)C1=C(O)CC(c2nc(-c3ccnc(F)c3)no2)NC1=O` (stereo not shown) [3-065], for which the mortality at 500 µg/mL in assay [1], in assay [2] and in assay [3] was not below 90% in each case. Further, in assay [4], the mortality at 10 µg/cm2 was not below 50%.
Take `O=C(Nc1cc(Br)ccn1)C1=C(O)CC(c2cnc(Cl)c(-c3cnccc3F)c2)NC1=O` (stereo not shown) [2-144]: the mortality at 500 µg/mL in assay [1], in assay [2] and in assay [3] was not below 90% in each case. Besides, the mortality at 10 µg/cm2 in assay [4] is not below 50%.

The values are drawn from patent EP4582413A1, “ARYLTETRAHYDROPYRIDINE COMPOUND AND PEST CONTROL AGENT” (priority 2022, dated 2024).
